In PubChem BioAssay (NCI):
“And” between values parts separate entries of the source, which are not always exact repeats. Equal values may be shown once.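 All cell lines were grown in 96-well plates and treated with compound for 48 hours. GI50 is the concentration that inhibits growth by half. TGI: total growth inhibition.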

Assays:
Assay in all cases: DTP human tumour cell line panel, 48 h
[1] = system: COLO 205 colon
[2] = system: EKVX NSCLC
[3] = system: MOLT-4 leukemia
[4] = system: NCI-H226 lung
[5] = system: OVCAR-8 ovarian
[6] = system: RPMI-8226 leukemia
[7] = system: SNB-75 CNS
[8] = system: TK-10 renal
[9] = system: MDA-MB-435
[10] = system: NCI-H23 lung

| SMILES | TGI [1] | TGI [2] [µM] | TGI [3] | TGI [4] | TGI [5] | TGI [6] [µM] | TGI [7] [µM] | TGI [8] | GI50 [2] [µM] | GI50 [9] [nM] | TGI [9] [µM] | GI50 [4] [µM] | GI50 [10] [nM] | TGI [10] | GI50 [5] [µM] | GI50 [6] [µM] | GI50 [7] [nM] | GI50 [8] [µM] | GI50 [1] [µM] | GI50 [3] [nM] |
| --- | --- | --- | --- | --- | --- | --- | --- | --- | --- | --- | --- | --- | --- | --- | --- | --- | --- | --- | --- | --- |
| Cc1[nH]c(=O)nc(N/N=C/c2ccc(O)cc2)c1C(=O)Nc1ccc(Cl)cc1 | > 100 µM | > 100 | > 100 µM | > 100 µM | > 100 µM | > 100 | > 100 | > 100 µM | – | – | – | – | – | – | – | – | – | – | – | – |
| Cn1cc(-c2nn3cc(-c4cccs4)nc3s2)c2cc(F)ccc21 | – | > 100 | – | 35.8 µM | > 100 µM | 26.5 | 6.45 | 19.4 µM | 2.51 | 293 | 1.13 | 4.56 | 3820 | > 100 µM | 4.53 | 3.01 | 1290 | 4.92 | – | – |
| COc1ccccc1NC(=O)C(=O)C1C(=O)Nc2ccccc2S1=O (stereo not given) | > 100 µM | > 100 | > 100 µM | > 100 µM | > 100 µM | – | > 100 | > 100 µM | – | – | – | – | – | > 100 µM | – | – | – | – | – | – |
| COC(=O)C1CCC(=NC2c3ccccc3-c3ccccc32)N1 (stereo not given) | > 100 µM | > 100 | > 100 µM | > 100 µM | > 100 µM | > 100 | > 100 | > 100 µM | – | – | – | – | – | > 100 µM | – | – | – | – | – | – |
| Nc1ncnc2c1ncn2Cc1ccc(C23CC4CC(CC(C4)C2)C3)c(O)c1 | > 100 µM | > 100 | > 100 µM | > 100 µM | > 100 µM | – | 40 | 50.2 µM | 33.4 | 15000 | > 100 | > 100 | – | – | 17.5 | – | 13400 | 7.24 | 29.1 | 6720 |
| COc1cc2c(c(OC)c1OC)-c1ccc(SC)c(=O)cc1[C@@H](NC(=O)c1ccc(C#N)cc1)CC2 | < 0.01 µM | > 100 | > 53.8 µM | < 0.01 µM | 12.9 µM | > 100 | 92.4 | > 100 µM | – | – | – | – | – | < 0.01 µM | – | – | – | – | – | – |
| COc1ccc(N(Cc2cc(OC)c(OC)c(OC)c2)C2OC(=O)c3ccccc32)cc1 (stereo not given) | 5.77 µM | – | > 100 µM | > 100 µM | > 100 µM | > 100 | – | > 100 µM | – | 165 | 0.433 | 21.8 | 1150 | > 100 µM | 0.779 | 0.539 | – | – | 0.39 | 661 |
| O=c1c2cc(F)ccc2sc2c(NCCCN3CCCC3)nc3ccccc3c12 | – | 8.48 | 4.22 µM | 15.4 µM | 4.86 µM | – | 3.14 | 3.65 µM | 2.58 | 1800 | 3.25 | 3.37 | 1890 | 3.69 µM | 2.11 | – | 1430 | 1.99 | – | 1970 |
| CC[C@@]1(O)C(=O)OCc2c1cc1n(c2=O)Cc2cc3c(NC(C)=O)c(O)ccc3nc2-1 | > 100 µM | > 100 | 0.968 µM | > 20.3 µM | > 47.7 µM | 56.8 | 7.31 | > 100 µM | 81.4 | – | – | 2.98 | 762 | 9.15 µM | 1.54 | 4.58 | 744 | > 71.4 | 17.6 | 133 |
| CCC1NCC(=O)c2c1[nH]c1ccccc21 (stereo not given) | > 100 µM | > 100 | > 100 µM | > 100 µM | > 100 µM | > 100 | > 100 | > 100 µM | – | – | – | – | – | > 100 µM | – | – | – | – | – | – |
| CCCCCCCCCCCCCCCC(=O)N[C@H]1CCc2cc(OC)c(OC)c(OC)c2-c2ccc(SC)c(=O)cc21 | 0.494 µM and 0.391 µM | – | 19.6 µM and 13.1 µM | 0.656 µM and 5.65 µM | 8.92 µM and 12.6 µM | 22.7 | – | 35.8 µM and > 100 µM | 4.22 | – | – | 2.63 | 1250 | 1.96 µM and 3.85 µM | 3.31 | – | 2960 | 27.9 | – | 3210 |
| COc1ccc(S(=O)(=O)NCCNc2nccc(-c3c(-c4ccccc4)nc4sccn34)n2)cc1 | > 100 µM | > 100 | – | > 100 µM | > 100 µM | – | 9.54 | > 100 µM | 7.11 | 1220 | > 100 | 4.66 | 7350 | > 100 µM | 3.08 | – | 1820 | 5.07 | 2.66 | – |
| CCCCCCCCC(=O)NCCCNCCCNC(=O)CCCCCCCC | 9.57 µM | 30.1 | 10.4 µM | 35.1 µM | 32.9 µM | 11 | – | 30.2 µM | – | – | – | – | – | 29.9 µM | – | – | – | – | – | – |
| Clc1ccccc1C1=NN(c2ccccc2)C2c3cc(Br)ccc3OCC12 (stereo not given) | > 100 µM | > 100 | > 100 µM | – | > 100 µM | > 100 | > 100 | > 100 µM | – | – | – | – | – | > 100 µM | – | – | – | – | – | – |
| O=c1[nH]c(-c2ccccn2)nc2sc3c(c12)CCCCCC3 | > 100 µM | – | > 100 µM | > 100 µM | > 100 µM | > 100 | > 100 | > 100 µM | – | > 100000 | > 100 | > 100 | 11000 | > 100 µM | 4.33 | 3.63 | 85100 | > 100 | 5.85 | 2410 |
| N#CC(=C=[N-])[n+]1ccc(Cl)cc1 | 32.9 µM | 33.8 | > 100 µM | 66.7 µM | 37.9 µM | 60.7 | 32.2 | 45.8 µM | – | – | – | – | – | 29.9 µM | – | – | – | – | – | – |
| Cc1ccc(OCCCCCCNCCO)c(C)c1 | 26.3 µM | – | 36.8 µM | 32.9 µM | 35.9 µM | 37.9 | 20.1 | 30 µM | – | 12300 | 28.1 | 15.1 | 15500 | 35.4 µM | 17.8 | 15.5 | 6470 | 16 | 10 | 16300 |
